Test results: ChEMBL document CHEMBL1201862, “PubChem BioAssay data set” (2004)
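All cell lines were grown in 96-well plates and treated with compound for 48 hours. GI50 is the concentration that inhibits growth by half.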 The source made the active and inactive calls. No stated cut-off is given here; in the data, active = GI50 up to about 1.1 µM and inactive = higher.

Experiments:
Assay in all cases: DTP human tumour cell line panel, 48 h
A498 = test system: A498
CCRF-CEM = test system: CCRF-CEM
DU-145 = test system: DU-145
EKVX = test system: EKVX
KM12 = test system: KM12
MDA-N = test system: MDA-N
MOLT-4 = test system: MOLT-4
NCI-H23 = test system: NCI-H23
SF-295 = test system: SF-295
SF-539 = test system: SF-539
SN12C = test system: SN12C
SNB-19 = test system: SNB-19
UO-31 = test system: UO-31
MDA-MB-435 = test system: MDA-MB-435
RXF 393 = test system: RXF 393
SK-MEL-28 = test system: SK-MEL-28
SW-620 = test system: SW-620
U-251 = test system: U-251
SR = test system: SR

Measured: GI50

CCOC(=O)c1c(NS(=O)(=O)c2ccc(C)cc2)sc2c1CCCC2
inactive: A498 36.1 µM | CCRF-CEM 12.1 µM | DU-145 33.6 µM | EKVX 32.6 µM | KM12 19 µM | MDA-N 42.7 µM | MOLT-4 37.6 µM | NCI-H23 18.1 µM | SF-295 28 µM | SF-539 29.9 µM | SN12C 31.8 µM | SNB-19 35.1 µM | UO-31 21.1 µM

COc1cc(-c2nc(SC)nc3c2CCc2ccccc2-3)cc(OC)c1OC
inactive: A498 > 100 µM | CCRF-CEM > 100 µM | DU-145 79.8 µM | EKVX 29.1 µM | KM12 65.9 µM | MDA-MB-435 95.1 µM | MOLT-4 30.5 µM | NCI-H23 > 100 µM | RXF 393 36 µM | SF-295 91 µM | SF-539 83.4 µM | SK-MEL-28 > 100 µM | SN12C > 100 µM | SNB-19 > 100 µM | SW-620 > 100 µM | U-251 93.1 µM | UO-31 46.3 µM

Cc1cccc2c1nc1n2C(=O)c2ccccc2-1
inactive: CCRF-CEM > 100 µM | DU-145 > 100 µM | EKVX > 100 µM | KM12 > 100 µM | MDA-N > 100 µM | MOLT-4 > 100 µM | NCI-H23 > 100 µM | RXF 393 > 100 µM | SF-295 > 100 µM | SF-539 > 100 µM | SK-MEL-28 > 100 µM | SN12C > 100 µM | SNB-19 > 100 µM | SR > 100 µM | SW-620 > 100 µM | U-251 > 100 µM | UO-31 > 100 µM

CCOc1cc(C=O)c2c(ccc3ccc(OC)c(OC)c32)c1OC
inactive: CCRF-CEM 28.2 µM | DU-145 > 100 µM | EKVX 7.1 µM | KM12 27.2 µM | MDA-MB-435 70.6 µM | MDA-N 57 µM | MOLT-4 13.3 µM | NCI-H23 64 µM | RXF 393 > 100 µM | SF-295 43.8 µM | SK-MEL-28 89.9 µM | SN12C 70.6 µM | SNB-19 > 100 µM | U-251 88.9 µM | UO-31 66.8 µM

CCOc1ccc(N/C(=C(/C(Cl)=C(/Cl)NC(C)(C)C)[N+](=O)[O-])n2nnc3ccccc32)cc1
inactive: A498 91.6 µM | CCRF-CEM 12.7 µM | EKVX 39 µM | KM12 21.1 µM | MDA-MB-435 18.2 µM | MOLT-4 > 100 µM | NCI-H23 22.6 µM | RXF 393 20.1 µM | SF-295 28.1 µM | SF-539 24.1 µM | SK-MEL-28 16.4 µM | SN12C 34 µM | SNB-19 47.6 µM | SW-620 19.2 µM | U-251 19 µM | UO-31 29.9 µM

COC12C=CC(CC1)C1C(=O)c3c(C)c(C)n(C)c3C(=O)C12 (stereo not drawn)
inactive: A498 > 100 µM | CCRF-CEM > 100 µM | DU-145 > 100 µM | EKVX > 100 µM | KM12 91.4 µM | MDA-MB-435 83.2 µM | MOLT-4 > 100 µM | NCI-H23 99.5 µM | RXF 393 > 100 µM | SF-295 > 100 µM | SF-539 > 100 µM | SNB-19 > 100 µM | SR 27 µM | SW-620 > 100 µM | U-251 > 100 µM | UO-31 36.1 µM

CC(C)(O)[C@@H]1CC[C@](C)(C2[C@@H](O)C[C@@]3(C)C4C[C@H](OC5OCC(O)C(O)C5O)[C@H]5C(C)(C)[C@@H](OC6OCC(O)C(O)C6OC6OCC(O)C(O)C6O)CC[C@@]56C[C@@]46CC[C@]23C)O1 (stereo partly drawn)
inactive: A498 > 100 µM | CCRF-CEM > 100 µM | DU-145 > 100 µM | EKVX > 100 µM | KM12 > 100 µM | MDA-MB-435 > 100 µM | MOLT-4 > 100 µM | NCI-H23 > 100 µM | RXF 393 > 100 µM | SF-295 > 100 µM | SF-539 > 100 µM | SK-MEL-28 > 100 µM | SN12C > 100 µM | SNB-19 > 100 µM | SR > 100 µM | SW-620 > 100 µM | U-251 > 100 µM | UO-31 > 100 µM

O=c1cccc(C2CC(CO)C3CCCCN3C2)[nH]1 (stereo not drawn)
inactive: A498 > 100 µM | CCRF-CEM > 100 µM | DU-145 > 100 µM | EKVX > 100 µM | KM12 > 100 µM | MDA-MB-435 > 100 µM | MDA-N > 100 µM | MOLT-4 > 100 µM | NCI-H23 > 100 µM | SF-295 > 100 µM | SF-539 > 100 µM | SK-MEL-28 > 100 µM | SN12C > 100 µM | SNB-19 > 100 µM | SW-620 > 100 µM | U-251 > 100 µM | UO-31 > 100 µM

Oc1ccc(O)c(Sc2nnc(CCCCCCCCc3nnc(Sc4cc(O)ccc4O)o3)o2)c1
inactive: A498 > 100 µM | DU-145 > 100 µM | EKVX > 100 µM | KM12 26.7 µM | MDA-MB-435 18.2 µM | MDA-N 17.3 µM | MOLT-4 49.5 µM | NCI-H23 > 100 µM | SF-295 > 100 µM | SK-MEL-28 > 100 µM | SN12C 90.6 µM | SNB-19 > 100 µM | SW-620 31.3 µM | U-251 71.6 µM | UO-31 16.6 µM

NC(=O)OCc1c(-c2ccccc2)nn(-c2ccccc2)c1COC(N)=O
inactive: DU-145 > 100 µM | KM12 > 100 µM | MDA-MB-435 > 100 µM | MDA-N > 100 µM | NCI-H23 > 100 µM | RXF 393 > 100 µM | SF-295 > 100 µM | SF-539 > 100 µM | SK-MEL-28 > 100 µM | SN12C > 100 µM | SNB-19 > 100 µM | SW-620 > 100 µM | U-251 > 100 µM | UO-31 > 100 µM

N#Cc1nn(C(N)=O)c(N)c1C#N
inactive: A498 > 100 µM | CCRF-CEM > 100 µM | DU-145 > 100 µM | EKVX > 100 µM | KM12 > 100 µM | MDA-N > 100 µM | MOLT-4 > 100 µM | NCI-H23 > 100 µM | SF-295 > 100 µM | SF-539 > 100 µM | SK-MEL-28 > 100 µM | SN12C > 100 µM | SNB-19 > 100 µM | SR > 100 µM | SW-620 > 100 µM | U-251 > 100 µM | UO-31 > 100 µM

Cc1ccc2c(c1)-c1c3c(nn1-c1ccccc1)-c1ccccc1SC3O2 (stereo not drawn)
inactive: A498 > 100 µM | CCRF-CEM > 100 µM | EKVX > 100 µM | KM12 > 100 µM | MOLT-4 > 100 µM | NCI-H23 > 100 µM | RXF 393 > 100 µM | SF-295 > 100 µM | SF-539 > 100 µM | SK-MEL-28 > 100 µM | SW-620 > 100 µM | U-251 > 100 µM | UO-31 > 100 µM
